Laboratory results published in paper PMC4805609, “Estrogenic Effects of Several BPA Analogs in the Developing Zebrafish Brain” (Frontiers in Neuroscience, 2016).

Columns and labels:
zfERβ1 [1] = target: T1, zfERβ1 (Danio rerio, UniProt Q5PR29); assay: cyp19a1b-luciferase reporter gene assay in U251-MG glial cells transfected with zfERβ1; format: cell-based, zebrafish; settings: 10–6 M, 24 h, U251-MG cells with ERβ1, vs DMSO
T1 sequence (Q5PR29 1-592): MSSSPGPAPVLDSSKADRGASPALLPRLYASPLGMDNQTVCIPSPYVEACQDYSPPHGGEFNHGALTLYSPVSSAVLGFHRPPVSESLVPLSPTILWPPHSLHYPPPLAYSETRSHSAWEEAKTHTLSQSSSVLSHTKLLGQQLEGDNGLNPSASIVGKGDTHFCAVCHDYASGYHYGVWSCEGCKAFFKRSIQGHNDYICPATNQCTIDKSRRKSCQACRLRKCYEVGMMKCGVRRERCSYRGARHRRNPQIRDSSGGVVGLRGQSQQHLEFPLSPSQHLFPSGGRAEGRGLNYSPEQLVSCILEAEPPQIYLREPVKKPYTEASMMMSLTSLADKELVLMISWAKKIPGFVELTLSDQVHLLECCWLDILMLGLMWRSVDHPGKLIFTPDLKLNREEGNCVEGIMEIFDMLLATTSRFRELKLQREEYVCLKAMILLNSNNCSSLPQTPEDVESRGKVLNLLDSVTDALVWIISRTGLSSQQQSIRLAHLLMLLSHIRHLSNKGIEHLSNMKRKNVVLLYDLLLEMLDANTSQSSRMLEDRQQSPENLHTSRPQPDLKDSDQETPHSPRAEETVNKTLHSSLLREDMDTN
Text: The zfER-α, zfER-β1, and zfER-β2 expression vectors correspond to Topo-pcDNA3 expression vector (Invitrogen, San Diego, CA, USA), containing the coding regions of each zebrafish estrogen receptor cDNA as previously described (Menuet et al., [2002]). The cyp19a1b-Luciferase plasmid consists of 500 bp of the proximal promoter region of zebrafish cyp19a1b gene, containing an ERE, coupled to the luciferase reporter gene (Menuet et al., [2002]).
(§1) Human U251-MG glial cells were maintained in phenol red-free Dulbecco's Modified Eagle's Medium (DMEM; Life Technologies, Saint Aubin, France) supplemented with 10% fetal calf serum (Biowest, Nuaillé, France), 4 mM L-Glutamine (Gibco, Carlsbad, CA, USA) and 1 mM Na-Pyruvate (Life Technologies, Saint Aubin, France) and kept at 37°C and 5% CO2 atmosphere (Le Page et al., [2006]). The medium was also supplemented with 20 U/mL penicillin, 20 μg/mL streptomycin, and 50 ng/mL amphotericin B (Gibco). For transfections, cells were plated in 24-well plates at a density of 25,000 cells/ml in the same medium, except the fetal calf serum was charcoal-treated and used at a concentration of 2.5%. Cells were transfected with 25 ng/well either the vector expression containing or not the zfERα, zfERβ1, zfERβ2 coding region and cytomegalovirus [CMV]−β-Galactosidase, and 150 ng/well of the cyp19a1b-Luciferase reporter plasmid, using JetPEI as a transfection reagent (Polyplus Transfection, Illkirch, France). […] Luciferase activity was measured 24 h later (Luciferase assay system, Promega, Madison, WI, USA). β-Galactosidase activity was used to normalize transfection efficiency. Chemicals were tested in at least 3 independent experiments and each experiment was performed in triplicate.

zfERβ2 [2] = target: T2, zfERβ2 (Danio rerio, UniProt Q7ZU32); assay: cyp19a1b-luciferase reporter gene assay in U251-MG glial cells transfected with zfERβ2; format: cell-based, zebrafish; settings: 10–6 M, 24 h, U251-MG cells with ERβ2, vs DMSO
T2 sequence (Q7ZU32 1-553): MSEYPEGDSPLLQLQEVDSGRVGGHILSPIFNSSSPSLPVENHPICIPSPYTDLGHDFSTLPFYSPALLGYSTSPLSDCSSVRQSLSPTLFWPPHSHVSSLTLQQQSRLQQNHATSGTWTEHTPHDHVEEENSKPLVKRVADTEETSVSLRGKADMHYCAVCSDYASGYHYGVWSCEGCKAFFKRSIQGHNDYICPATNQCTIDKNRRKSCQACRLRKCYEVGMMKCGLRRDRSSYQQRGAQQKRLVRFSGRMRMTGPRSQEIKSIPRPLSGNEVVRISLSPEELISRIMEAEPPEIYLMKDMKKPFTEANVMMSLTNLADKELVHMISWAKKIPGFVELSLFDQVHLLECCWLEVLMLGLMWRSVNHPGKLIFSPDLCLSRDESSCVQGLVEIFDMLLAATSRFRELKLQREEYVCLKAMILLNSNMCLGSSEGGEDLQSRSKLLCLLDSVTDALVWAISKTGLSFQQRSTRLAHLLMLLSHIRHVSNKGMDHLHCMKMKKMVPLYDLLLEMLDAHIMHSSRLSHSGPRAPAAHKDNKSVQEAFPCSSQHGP
Description: as §1, with “The” for “Human U251-MG glial cells were maintained in phenol red-free Dulbecco's Modified Eagle's Medium (DMEM; Life Technologies, Saint Aubin, France) supplemented with 10% fetal calf serum (Biowest, Nuaillé, France), 4 mM L-Glutamine (Gibco, Carlsbad, CA, USA) and 1 mM Na-Pyruvate (Life Technologies, Saint Aubin, France) and kept at 37°C and 5% CO2 atmosphere (Le Page et al., [2006]). The”

zfERα = target: T3, zfERα (Danio rerio, UniProt P57717); assay: competitive binding assay vs [3H]-E2 on in vitro translated zfERα; set-up: containing the coding regions of each zebrafish estrogen receptor cDNA; species or system zebrafish; settings: for receptor-binding activity: competition with [3H]-E2, ERα, Figure 8A
T3 sequence (P57717 1-569): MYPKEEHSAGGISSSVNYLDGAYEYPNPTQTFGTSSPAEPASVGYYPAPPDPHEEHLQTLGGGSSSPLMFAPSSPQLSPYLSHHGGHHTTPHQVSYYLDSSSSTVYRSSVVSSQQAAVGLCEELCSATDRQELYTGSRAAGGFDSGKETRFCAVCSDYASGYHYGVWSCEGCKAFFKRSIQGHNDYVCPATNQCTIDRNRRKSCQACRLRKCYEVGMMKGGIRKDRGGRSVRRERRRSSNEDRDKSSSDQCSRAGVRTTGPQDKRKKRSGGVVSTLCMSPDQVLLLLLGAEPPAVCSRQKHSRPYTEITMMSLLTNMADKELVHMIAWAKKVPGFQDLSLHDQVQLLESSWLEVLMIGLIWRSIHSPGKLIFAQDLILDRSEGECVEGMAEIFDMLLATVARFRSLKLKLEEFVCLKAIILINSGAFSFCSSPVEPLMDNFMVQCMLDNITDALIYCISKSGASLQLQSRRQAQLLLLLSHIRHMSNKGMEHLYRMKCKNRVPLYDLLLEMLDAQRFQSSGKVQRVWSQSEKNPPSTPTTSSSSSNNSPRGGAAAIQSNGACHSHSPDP
Description: (§2) We also performed a competitive binding assay to test the binding properties of our compounds of interest with the three zfERs (Blair et al., [2000]). The three zebrafish estrogen receptor proteins were synthesized using the Topo-pcDNA3 expression vector containing the coding region of zfERα, zfERβ1, and zfERβ2 (Menuet et al., [2002]). The TNT Quick Coupled Transcription/Translation Systems kit (Promega, Madison, WI, USA) was used for synthesis of zfER proteins by adding 1 μg of each ER expression vector and according to the manufacturer's protocol. […] IC50 were calculated using GraphPad Prism, version 6.07.

zfERβ1 [3] = target: T1, zfERβ1; assay: competitive binding assay vs [3H]-E2 on in vitro translated zfERβ1; set-up: species or system zebrafish
Description: as §2

zfERβ2 [4] = target: T2, zfERβ2
Description: as §2

Compound | cyp19a1b-luciferase reporter gene induction (zfERβ1 [1]) | cyp19a1b-luciferase reporter gene induction (zfERβ2 [2]) | receptor-binding activity (zfERα) | receptor-binding activity (zfERβ1 [3]; competition with [3H]-E2, ERβ1, Figure 8B) | receptor-binding activity (zfERβ2 [4]) | IC50 (zfERα; displacement of 10^−9 M [3H]-E2, ERα) [nM] | IC50 (zfERβ1 [3]) [nM]
CC(c1ccccc1)(c1ccc(O)cc1)c1ccc(O)cc1 [BPAP, 4,4′-(1-phenylethylidene)bisphenol] | did not stimulate | did not stimulate |  |  |  |  | 
O=S(=O)(c1ccc(O)cc1)c1ccc(O)cc1 [BPS, bis-(4-hydroxyphenyl)sulfone] | did not stimulate | did not stimulate | almost no binding affinities | almost no binding affinities | almost no binding affinities |  | 
Oc1ccc(C(c2ccc(O)cc2)(C(F)(F)F)C(F)(F)F)cc1 [BPAF, 2,2-bis(4-hydroxylphenyl)hexafluoropropane] |  |  | bind in vitro to ERα receptor |  |  | 76 | 660
